Assay results: US20260184708A1, “PYRIDAZINONES AND METHODS OF USE THEREOF” (GFB (ABC), LLC, priority 2017, published 2026)

What was measured:
Format in all cases: cell-based
[1] = biological target: T1, TRPC5 (Homo sapiens, UniProt Q9UL62); assay: TRPC5 automated patch clamp assay (Qpatch), current block after rosiglitazone stimulation; conditions: Table 6; HEK293 cells overexpressing TRPC5; read-out: TRPC5-QPatch IC50
T1 construct: expressed in transfected cells; host or cells: HEK 293
T1 sequence (Q9UL62 1-973): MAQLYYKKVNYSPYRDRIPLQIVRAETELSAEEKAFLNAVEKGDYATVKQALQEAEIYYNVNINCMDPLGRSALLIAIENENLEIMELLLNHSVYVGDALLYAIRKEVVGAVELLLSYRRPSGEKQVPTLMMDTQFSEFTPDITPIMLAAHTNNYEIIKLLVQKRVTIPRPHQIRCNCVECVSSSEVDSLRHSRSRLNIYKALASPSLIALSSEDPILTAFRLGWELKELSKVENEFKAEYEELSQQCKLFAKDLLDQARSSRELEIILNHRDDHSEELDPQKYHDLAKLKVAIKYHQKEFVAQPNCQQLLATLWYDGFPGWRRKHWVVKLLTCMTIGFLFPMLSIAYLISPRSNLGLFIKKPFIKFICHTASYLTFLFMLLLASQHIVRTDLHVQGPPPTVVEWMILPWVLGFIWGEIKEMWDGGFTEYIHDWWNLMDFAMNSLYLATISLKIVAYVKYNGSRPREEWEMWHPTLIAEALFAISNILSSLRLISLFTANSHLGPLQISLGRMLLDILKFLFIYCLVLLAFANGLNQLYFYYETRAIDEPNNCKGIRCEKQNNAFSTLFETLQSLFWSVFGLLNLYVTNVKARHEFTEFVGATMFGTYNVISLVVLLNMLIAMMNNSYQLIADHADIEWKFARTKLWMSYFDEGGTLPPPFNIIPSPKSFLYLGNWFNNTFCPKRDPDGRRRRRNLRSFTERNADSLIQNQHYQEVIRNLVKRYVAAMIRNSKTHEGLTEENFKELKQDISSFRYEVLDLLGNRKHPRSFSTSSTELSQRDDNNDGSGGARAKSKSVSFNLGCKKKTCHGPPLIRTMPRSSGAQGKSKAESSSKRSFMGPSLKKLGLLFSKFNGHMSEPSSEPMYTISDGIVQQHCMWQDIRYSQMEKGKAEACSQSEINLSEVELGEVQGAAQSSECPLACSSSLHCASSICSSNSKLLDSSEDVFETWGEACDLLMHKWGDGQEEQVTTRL
Procedure, shortened: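 HEK 293 cells expressing human TRPC5, whole-cell QPatch recording; 1 μM buffered free internal Ca2+, external pH 7.4. Ramps −100 to +100 mV over 300 ms every 10 s from −60 mV holding; channel activated by Rosiglitazone (30 uM) after ≥60 s control. IC50 from Hill fit.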

[2] = biological target: T1, TRPC5; assay: TRPC5 fluorescence assay, membrane potential dye, flexstation (FLEX); conditions: Table 6; HEK293 cells overexpressing TRPC5
Procedure: HEK 293 cells expressing human TRPC5 cells were trypsinised, counted and seeded in black, clear-bottomed 96-well plates at a density of 50,000 cells per well and incubated overnight. Next day, the cells were loaded with membrane potential dye. Dye solution was made up according to the manufacturer's instructions in HEPES buffered Hank's balanced salt solution (HBSS). Dye solution (10 μL) was added to the wells and incubated at 37° C. for 1 hour. The test compounds and standard inhibitors were added to the wells and incubated at room temperature for 10 minutes. The plates were then placed in the flexstation and fluorescence monitored every 1.52 seconds. After 20 seconds, 10 μL of the appropriate standard agonist was added and the fluorescence monitored for 2 minutes at ex/emm: 530 nm/565 nm.

[3] = biological target: T1, TRPC5; assay: TRPC5 automated electrophysiology (Syncropatch - Spatch format); conditions: Table 6; HEK293 cells overexpressing TRPC5
Procedure: The automated electrophysiological assay was carried out at room temperature. HEK-TRPC5 cells were cultured according to our standard operating procedures. Internal and external physiological solutions were freshly prepared prior to the assay. The free internal Ca2+ concentration was buffered to 1 μM according to the WCabuf software using 10 mMHEDTA. To monitor the ion currents, a voltage ramp from −100 mV to +80 mV, over 250 ms, was applied every 15 seconds, from a holding potential of −60 mV. To stabilize the inward and outward currents the voltage was kept steady at −100 mV and +80 mV for 20 ms. After recording for a minimum of 60 seconds control period, the activator (at 10, 15, 20 or 30 μM) was applied twice, before increasing concentrations of test compound (or vehicle) were applied to the cell. This was followed by a saturating concentration of the specific blocker ML 204 (100 μM). Graphs were plotted using the maximum outward current values obtained at +80 mV during the patch-clamp recordings. Data were normalized using the SyncroPatch384 equation Inorm=1−((Iconc−IFB)/(IRef−IFB)), where Iconc is the current amplitude at each concentration of agonist, IRef is the control current amplitude and IFB is the current in the presence of the saturating blocker ML204. Graphs were constrained between the maximum and minimum values. The series resistance (<15 MΩ) and quality of seals (>100 MΩ) were continuously monitored during the experiments. Data was analyzed using the Nanion Data Control384 software. EC/IC50 values were calculated using a least squares regression algorithm (Hill equation).

IC50 [1] [nM] | IC50 [2] [nM] | IC50 [3] [nM] | SMILES
1000 to 5000 | 10000 to 500000 |  | Cc1ccccc1-n1cnc2c1CCN(c1cn[nH]c(=O)c1Cl)C2
0.01 to 1000 | 0.01 to 1000 |  | O=c1[nH]ncc(N2CCc3c(ncn3Cc3cccnc3OC(F)(F)F)C2)c1Cl
10000 to 500000 | 1000 to 5000 |  | O=c1[nH]ncc(N2CCc3ncn(Cc4ccc(C(F)(F)F)cc4)c3C2)c1Cl
1000 to 5000 | 0.01 to 1000 |  | O=c1[nH]ncc(N2CCc3c(ncn3-c3cccc(C(F)(F)F)c3)C2)c1Cl
1000 to 5000 | 1000 to 5000 |  | O=c1[nH]ncc(N2CCc3c(ncn3Cc3cccnc3C(F)(F)F)C2)c1Cl
5000 to 10000 | 5000 to 10000 |  | O=c1[nH]ncc(N2CCc3c(ncn3Cc3ccccc3C(F)(F)F)C2)c1C1CC1
1000 to 5000 | 1000 to 5000 |  | Cc1ncccc1Cn1cnc2c1CCN(c1cn[nH]c(=O)c1Cl)C2
10000 to 500000 | 10000 to 500000 |  | O=c1[nH]ncc(N2CCc3c(ncn3Cc3ccc(C(F)(F)F)nc3)C2)c1Cl
0.01 to 1000 | 0.01 to 1000 |  | O=c1[nH]ncc(N2CCc3c(cnn3Cc3ccccc3C(F)(F)F)C2)c1Cl
10000 to 500000 | 1000 to 5000 |  | Cc1ccccc1-n1cc2c(n1)CCN(c1cn[nH]c(=O)c1Cl)C2
10000 to 500000 | 10000 to 500000 |  | O=c1[nH]ncc(N2CCc3c(ncn3Cc3ccc(C(F)(F)F)cc3)C2)c1C1CC1
10000 to 500000 | 0.01 to 1000 |  | O=c1[nH]ncc(N2CCc3nn(-c4ccccc4C(F)(F)F)cc3C2)c1Cl
0.01 to 1000 | 0.01 to 1000 |  | Cc1ccccc1-n1ncc2c1CCN(c1cn[nH]c(=O)c1Cl)C2
1000 to 5000 | 0.01 to 1000 |  | O=c1[nH]ncc(N2CCc3c(ncn3Cc3cnccc3C(F)(F)F)C2)c1Cl
0.01 to 1000 | 0.01 to 1000 |  | CCc1ncccc1Cn1cnc2c1CCN(c1cn[nH]c(=O)c1Cl)C2
1000 to 5000 | 0.01 to 1000 |  | O=c1[nH]ncc(N2CCc3c(cnn3-c3ccccc3OC(F)(F)F)C2)c1Cl
1000 to 5000 | 0.01 to 1000 |  | CCc1cccnc1Cn1cnc2c1CCN(c1cn[nH]c(=O)c1Cl)C2
5000 to 10000 | 0.01 to 1000 |  | CC[C@@H](c1cncc(F)c1)n1cnc2c1CCN(c1cn[nH]c(=O)c1Cl)C2
0.01 to 1000 | 0.01 to 1000 |  | Cc1nc2c(n1Cc1ccccc1C(F)(F)F)CCN(c1cn[nH]c(=O)c1Cl)C2
1000 to 5000 | 0.01 to 1000 |  | O=c1[nH]ncc(N2CCc3c(ncn3Cc3ncccc3C(F)(F)F)C2)c1Cl
1000 to 5000 | 0.01 to 1000 |  | O=c1[nH]ncc(N2CCc3c(ncn3Cc3ccncc3C(F)(F)F)C2)c1Cl
5000 to 10000 | 10000 to 500000 |  | O=c1[nH]ncc(N2CCc3c(ncn3C3CCCCC3)C2)c1Cl
1000 to 5000 | 0.01 to 1000 |  | O=c1[nH]ncc(N2CCc3c(nnn3Cc3ccccc3C(F)(F)F)C2)c1Br
1000 to 5000 | 0.01 to 1000 |  | CCc1ncccc1Cn1nnc2c1CCN(c1cn[nH]c(=O)c1Cl)C2
0.01 to 1000 | 0.01 to 1000 |  | O=c1[nH]ncc(N2CCc3c(nnn3Cc3ccc(F)cc3C(F)(F)F)C2)c1Cl
1000 to 5000 | 0.01 to 1000 |  | N#Cc1c(N2CCc3c(ncn3Cc3ccccc3C(F)F)C2)cn[nH]c1=O
0.01 to 1000 | 0.01 to 1000 |  | O=c1[nH]ncc(N2CCc3c(nnn3Cc3ccccc3C(F)F)C2)c1Cl

IC50 [1] [nM] | IC50 [2] [nM] | IC50 [3] [nM] | SMILES
5000 to 10000 | 10000 to 500000 |  | O=c1[nH]ncc(N2CCc3c(nnn3C3CCCCC3)C2)c1Cl
1000 to 5000 | 10000 to 500000 |  | N#Cc1c(N2CCc3c(nnn3Cc3ccccc3C(F)F)C2)cn[nH]c1=O
1000 to 5000 | 10000 to 500000 |  | N#Cc1c(N2CCc3c(nnn3Cc3ccc(F)cc3C(F)(F)F)C2)cn[nH]c1=O
 |  | 5000 to 10000 | N#Cc1cc(F)ccc1Cn1nnc2c1CCN(c1cn[nH]c(=O)c1Cl)C2
 |  | 5000 to 10000 | O=c1[nH]ncc(N2CCc3c(nnn3Cc3cccnc3C(F)F)C2)c1Cl
 |  | 10000 to 500000 | O=c1[nH]ncc(Cl)c1N1CCc2c(nc(C3CC3)n2Cc2ccccc2C(F)(F)F)C1
 |  | 10000 to 500000 | C[C@H]1Cc2c(nnn2Cc2ccccc2C(F)F)CN1c1cn[nH]c(=O)c1Cl
 |  | 1000 to 5000 | COc1cccc(Cn2nnc3c2CCN(c2cn[nH]c(=O)c2Cl)C3)c1C
 |  | 1000 to 5000 | CC[C@H](c1cncc(F)c1)n1cnc2c1CCN(c1cn[nH]c(=O)c1Cl)C2
 |  | 0.01 to 1000 | CC1Cc2c(nnn2Cc2ccccc2C(F)F)CN1c1cn[nH]c(=O)c1Cl (stereo not shown)
1000 to 5000 | 0.01 to 1000 |  | O=c1[nH]ncc(N2CCc3c(ncn3Cc3ccccc3C(F)(F)F)C2)c1Br [drawing 838]
0.01 to 1000 | 0.01 to 1000 |  | Cc1ccccc1Cn1cnc2c1CCN(c1cn[nH]c(=O)c1Cl)C2 [drawing 840]
1000 to 5000 | 0.01 to 1000 |  | N#Cc1ccccc1-n1cnc2c1CN(c1cn[nH]c(=O)c1C#N)CC2 [drawing 841]
1000 to 5000 | 0.01 to 1000 |  | C[C@H](c1ccccc1)n1cnc2c1CCN(c1cn[nH]c(=O)c1Cl)C2 [drawing 842]
0.01 to 1000 | 0.01 to 1000 |  | O=c1[nH]ncc(N2CCc3c(ncn3Cc3ccc(F)cc3C(F)(F)F)C2)c1Cl [drawing 844]
5000 to 10000 | 10000 to 500000 |  | O=c1[nH]ncc(N2CCc3ncn(-c4ccccc4C(F)(F)F)c3C2)c1Cl [drawing 847]
0.01 to 1000 | 0.01 to 1000 |  | O=c1[nH]ncc(N2CCc3c(ncn3Cc3ccccc3C(F)(F)F)C2)c1Cl [drawing 850]
0.01 to 1000 | 0.01 to 1000 |  | O=c1[nH]ncc(N2CCc3c(nnn3Cc3ccccc3C(F)(F)F)C2)c1Cl [drawing 859]
0.01 to 1000 | 0.01 to 1000 |  | O=c1[nH]ncc(N2CCc3c(ncn3Cc3ccccc3C(F)(F)F)C2)c1Br [drawing 862]
0.01 to 1000 | 0.01 to 1000 |  | O=c1[nH]ncc(N2CCc3c(cnn3Cc3ccc(F)cc3C(F)(F)F)C2)c1Cl [drawing 864]
0.01 to 1000 | 0.01 to 1000 |  | O=c1[nH]ncc(N2CCc3c(ncn3-c3ccccc3C(F)(F)F)C2)c1Cl [drawing 871]
0.01 to 1000 | 0.01 to 1000 |  | N#Cc1c(N2CCc3c(ncn3Cc3ccccc3C(F)(F)F)C2)cn[nH]c1=O [drawing 873]
1000 to 5000 | 0.01 to 1000 |  | O=c1[nH]ncc(N2CCc3c(ncn3Cc3ccccc3)C2)c1Cl [drawing 880]
0.01 to 1000 | 0.01 to 1000 |  | O=c1[nH]ncc(N2CCc3c(ncn3Cc3ccc(F)cc3C(F)F)C2)c1Cl [drawing 892]
5000 to 10000 | 10000 to 500000 |  | CCc1ncccc1Cn1nnc2c1CCN(c1cn[nH]c(=O)c1C#N)C2 [drawing 895]
 |  | 1000 to 5000 | CCc1ncccc1Cn1nnc2c1CCN(c1cn[nH]c(=O)c1C#N)C2 [drawing 918]

SMILES | IC50 [1] [nM] | IC50 [2] [nM] | IC50 [3] [nM]
O=c1[nH]ncc(N2CCc3c(ncn3Cc3ccc(F)nc3C(F)(F)F)C2)c1Cl | 0.01 to 1000 | 1000 to 5000 | 
